This passage reports DC50 results from patent US20250051347A1, “BIFUNCTIONAL CHIMERIC HETEROCYCLIC COMPOUND AND USE THEREOF AS ANDROGEN RECEPTOR DEGRADER” (Hinova Pharmaceuticals, Inc., priority 2021, published 2025).

The target in this assay is T1, androgen receptor (AR) splicing variant AR-v7 (Homo sapiens, UniProt P10275).
T1 construct: The degradation activity of compounds on AR-v7 in 22RV1 cells; host or cells: 22RV1 cells
T1 sequence (P10275 1-644 isoform P10275-3): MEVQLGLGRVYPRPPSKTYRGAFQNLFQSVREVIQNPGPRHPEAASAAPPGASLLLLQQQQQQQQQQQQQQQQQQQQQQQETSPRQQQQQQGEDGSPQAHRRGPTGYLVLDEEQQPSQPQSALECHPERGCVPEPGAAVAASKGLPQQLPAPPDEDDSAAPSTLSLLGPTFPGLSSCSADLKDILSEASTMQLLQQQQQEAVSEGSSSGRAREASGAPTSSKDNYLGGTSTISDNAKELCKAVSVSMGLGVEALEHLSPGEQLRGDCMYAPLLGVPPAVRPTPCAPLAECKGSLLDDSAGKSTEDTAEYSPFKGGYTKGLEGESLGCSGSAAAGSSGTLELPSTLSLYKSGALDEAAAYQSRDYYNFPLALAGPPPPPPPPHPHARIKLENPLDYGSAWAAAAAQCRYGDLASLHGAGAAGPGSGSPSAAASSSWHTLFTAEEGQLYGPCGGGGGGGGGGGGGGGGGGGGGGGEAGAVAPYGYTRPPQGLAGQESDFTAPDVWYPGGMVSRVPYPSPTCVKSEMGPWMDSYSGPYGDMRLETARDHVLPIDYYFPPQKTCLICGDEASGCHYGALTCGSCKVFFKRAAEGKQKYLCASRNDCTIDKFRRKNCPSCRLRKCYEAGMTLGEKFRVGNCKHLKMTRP
Kind of assay: Degradation activity on androgen receptor splicing variant AR-v7 in 22RV1 cells (ELISA). It is filed as cell-based. The conditions noted are these: AR-v7 degradation in 22RV1 cells, 48 h, class symbols. A general note: In an ELISA, binding on a coated surface is turned into a signal by an enzyme label.

In the case of `CC(C)(c1ccc(OCCNC(=O)c2ccc3c(c2)C(=O)N(C2CCC(=O)NC2=O)C3=O)cc1)c1ccc(OCc2ccnc(N3CC4(COC4)C3)n2)cc1` (centres unmarked) [Example 114, N-(2-(4-(2-(4-((2-(2-oxa-6-azaspiro[3.3]heptan-6-yl)pyrimidin-4-yl)methoxy)phenyl)propan-2-yl)phenoxy)ethyl)-2-(2,6-dioxopiperidin-3-yl)-1,3-dioxoisoindolin-5-carbonylamine], the DC50 was 1000 to 5000 nM.

For the compound `CC(C)(c1ccc(OCc2cccc(C(=O)C3CC3)n2)cc1)c1ccc(O[C@H]2C[C@H](Nc3ccc4c(c3)C(=O)N(C3CCC(=O)NC3=O)C4=O)C2)cc1` (stereo partly drawn) [Example 117, 5-(((trans)-3-(4-(2-(4-((6-(cyclopropanecarbonyl)pyridin-2-yl)methoxy)phenyl)propan-2-yl)phenoxy)cyclobutyl)amino)-2-(2,6-dioxopiperidin-3-yl)isoindolin-1,3-dione], the 50% degradation concentration (DC50) is 11 to 100 nM.

On to `Cc1nnc(-c2ccc(Oc3ccc(C(C)(C)c4ccc(O[C@H]5C[C@@H](Nc6ccc7c(=O)n(C8CCC(=O)NC8=O)cnc7c6)C5)cc4)cc3)cn2)o1` (some centres unmarked) [Example 120], for which the 50% degradation concentration (DC50) is 11 to 100 nM.

On to `CC(O)c1ncc(Oc2ccc(C(C)(C)c3ccc(O[C@H]4C[C@@H](Nc5ccc6c(c5)C(=O)N(C5CCC(=O)NC5=O)C6=O)C4)cc3)cc2)cn1` (some centres unmarked) [Example 127], for which the DC50 lay within 11 to 100 nM.

For the compound `CC(O)c1cnc(Oc2ccc(C(C)(C)c3ccc(O[C@H]4C[C@@H](Nc5ccc6c(c5)C(=O)N(C5CCC(=O)NC5=O)C6=O)C4)cc3)cc2)cn1` (some centres unmarked) [Example 129], the 50% degradation concentration (DC50) lay within 11 to 100 nM.

Regarding `CC(=O)c1nccc(COc2ccc(C(C)(C)c3ccc(OCCCCCCCCOCCCCNc4ccc5c(c4)C(=O)N(C4CCC(=O)NC4=O)C5=O)cc3)cc2)n1` (centres unmarked) [Example 136, 5-((4-((8-(4-(2-(4-((2-acetylpyrimidin-4-yl)methoxy)phenyl)propan-2-yl)phenoxy)octyl)oxy)butyl)amino)-2-(2,6-dioxopiperidin-3-yl)isoindolin-1,3-dione], the half-maximal degradation concentration (DC50) fell in the range of 101 to 1000 nM.

The compound `CNC(=O)c1noc(COc2ccc(C(C)(C)c3ccc(OCCCNc4ccc5c(c4)C(=O)N(C4CCC(=O)NC4=O)C5=O)cc3)cc2)n1` (centres unmarked) [Example 137, 5-((4-(2-(4-(3-((2-(2,6-dioxopiperidin-3-yl)-1,3-dioxoisoindolin-5-yl)amino)propoxy)phenyl)propan-2-yl)phenoxy)methyl)-N-methyl-1,2,4-oxadiazol-3-carbonylaminomethane] yielded a half-maximal degradation concentration (DC50) of 11 to 100 nM.

`CC(C)(c1ccc(OCCCCCCCCOCCCCNc2ccc3c(c2)C(=O)N(C2CCC(=O)NC2=O)C3=O)cc1)c1ccc(OCc2nc(C(N)=O)no2)cc1` (centres unmarked) [Example 138] displayed a DC50 of 1000 to 5000 nM.

Turning to `CC(C)(c1ccc(OCCCNc2ccc3c(c2)C(=O)N(C2CCC(=O)NC2=O)C3=O)cc1)c1ccc(OCc2nc(C(=O)N3CCC3)no2)cc1` (centres unmarked) [Example 139, 5-((3-(4-(2-(4-((3-(azetidin-1-carbonyl)-1,2,4-oxadiazol-5-yl)methoxy)phenyl)propan-2-yl)phenoxy)propyl)amino)-2-(2,6-dioxopiperidin-3-yl)isoindolin-1,3-dione], the half-maximal degradation concentration (DC50) is 101 to 1000 nM.

In turn, `CC(C)(c1ccc(OCCCNc2ccc3c(c2)C(=O)N(C2CCC(=O)NC2=O)C3=O)cc1)c1ccc(OCc2nc(C(=O)N3CCCC3)no2)cc1` (centres unmarked) [Example 140, 2-(2,6-dioxopiperidin-3-yl)-5-((3-(4-(2-(4-((3-(pyrrolidin-1-carbonyl)-1,2,4-oxadiazol-5-yl)methoxy)phenyl)propan-2-yl)phenoxy)propyl)amino)isoindolin-1,3-dione] returned a half-maximal degradation concentration (DC50) of 101 to 1000 nM.

On to `CC(=O)c1nccc(COc2ccc(C(C)(C)c3ccc(OC[C@H]4CCCN4c4ccc5c(c4)C(=O)N(C4CCC(=O)NC4=O)C5=O)cc3)cc2)n1` (stereo partly drawn) [Example 144, 5-((R)-2-((4-(2-(4-((2-acetylpyrimidin-4-yl)methoxy)phenyl)propan-2-yl)phenoxy)methyl)pyrrolidin-1-yl)-2-(2,6-dioxopiperidin-3-yl)isoindolin-1,3-dione], for which the DC50 was in the range of 1000 to 5000 nM.

What is called DC50 is the concentration giving 50% degradation.
